The values that follow come from patent US20050221501A1, “Dissolution method” (priority 2003, published 2005).

The conditions of data set [1]: aqueous dissolution medium containing 4% sodium lauryl sulfate, in 60 minutes; cited from earlier work.
Data set [2] can be described thus: pH-dependent aqueous solubility of the Agent. Type of data set: physicochemical. Conditions: free-base form.
A short description of data set [3]: Biopharmaceutics Classification System (BCS) classification. It is filed as physicochemical. From the text: Under the BCS system Class II compounds are sparingly soluble with high permeability.

As to `COC1=CC(=O)C[C@@H](C)[C@]12Oc1c(Cl)c(OC)cc(OC)c1C2=O` [Griseofluvin], in data set [1], the “% dissolution” value is listed as “at least 75%”.
As for `COc1cc2ncnc(Nc3ccc(F)c(Cl)c3)c2cc1OCCCN1CCOCC1` [Agent, 4-(3′-chloro-4′-fluoroanilino)-7-methoxy-6-(3-morpholinopropoxy)quinazoline], the solubility entry in data set [2] (above pH 7) was “very low solubility”. Further, in data set [2] (pH 6), the “ml of aqueous solvent required to dissolve 1 g of Agent” value is at least 10000 mL. Moreover, the BCS class entry in data set [3] was “Class II”.
